# Measured values taken from ChEMBL document CHEMBL3272271, “Folate antagonists. 13. 2,4-Diamino-6-](alpha,alpha,alpha-trifluoro-m-tolyl)thio]quinazoline and related 2,4-diamino-6-[(phenyl- and naphthyl)thio]quinazolines, a unique class of antimetabolites with extraordinary antimalarial and antibacterial effects” (J Med Chem, 1978).
# The source made the active and inactive calls. The calls are words filed in the database; no cut-off is given here.
# What was measured:
# Plasmodium gallinaceum [1] = assay: Antimalarial activity against trophozoite-induced Plasmodium gallinaceum infected in white leghorn chicken assessed as disease cure from parasite infection at 320 mg/kg, sc administered 72 hrs after infection; type: functional, organism-based; set-up: dose 320 mg/kg
# Plasmodium gallinaceum [2] = assay: Antimalarial activity against trophozoite-induced Plasmodium gallinaceum infected in white leghorn chicken assessed as disease cure from parasite infection at 160 mg/kg, sc administered 72 hrs after infection; type: functional, organism-based; set-up: dose 160 mg/kg
# Plasmodium gallinaceum [3] = assay: Antimalarial activity against trophozoite-induced Plasmodium gallinaceum infected in white leghorn chicken assessed as disease cure from parasite infection at 80 mg/kg, sc administered 72 hrs after infection; type: functional, organism-based; set-up: dose 80 mg/kg
# Enterococcus faecalis = assay: Antibacterial activity against Streptococcus faecalis MGH-2 by gradient plate test; type: functional
# Staphylococcus aureus [4] = assay: Antibacterial activity against Staphylococcus aureus UC-96 by gradient plate test; type: functional
# Staphylococcus aureus [5] = assay: Antibacterial activity against drug-resistant Staphylococcus aureus S18713 by gradient plate test; type: functional
# Pseudomonas aeruginosa = assay: Antibacterial activity against Pseudomonas aeruginosa 28 by gradient plate test; type: functional
# Escherichia coli = assay: Antibacterial activity against Escherichia coli Vogel by gradient plate test; type: functional
# Shigella sonnei = assay: Antibacterial activity against Shigella sonnei C-10 by gradient plate test; type: functional
# Plasmodium gallinaceum [6] = assay: Antimalarial activity against sporozoite-induced Plasmodium gallinaceum infected in white leghorn chicken assessed as disease cure from parasite infection at 320 mg/kg, sc administered 72 hrs after infection; type: functional, organism-based; set-up: dose 320 mg/kg
# Plasmodium gallinaceum [7] = assay: Antimalarial activity against sporozoite-induced Plasmodium gallinaceum infected in white leghorn chicken assessed as disease cure from parasite infection at 160 mg/kg, sc administered 72 hrs after infection; type: functional, organism-based; set-up: dose 160 mg/kg
# Plasmodium gallinaceum [8] = assay: Antimalarial activity against sporozoite-induced Plasmodium gallinaceum infected in white leghorn chicken assessed as disease cure from parasite infection at 80 mg/kg, sc administered 72 hrs after infection; type: functional, organism-based; set-up: dose 80 mg/kg
# Plasmodium gallinaceum [9] = assay: Antimalarial activity against sporozoite-induced Plasmodium gallinaceum infected in white leghorn chicken assessed as disease cure from parasite infection at 40 mg/kg, sc administered 72 hrs after infection; type: functional, organism-based; set-up: dose 40 mg/kg
# Plasmodium gallinaceum [10] = assay: Antimalarial activity against sporozoite-induced Plasmodium gallinaceum infected in white leghorn chicken assessed as disease cure from parasite infection at 20 mg/kg, sc administered 72 hrs after infection; type: functional, organism-based; set-up: dose 20 mg/kg
# Plasmodium gallinaceum [11] = assay: Antimalarial activity against sporozoite-induced Plasmodium gallinaceum infected in white leghorn chicken assessed as increase in mean survival days of host at 10 mg/kg, sc administered 72 hrs after infection relative to control; type: functional; details: route subcutaneous
# Plasmodium gallinaceum [12] = assay: Antimalarial activity against sporozoite-induced Plasmodium gallinaceum infected in white leghorn chicken assessed as disease cure from parasite infection at 10 mg/kg, sc administered 72 hrs after infection; type: functional, organism-based; set-up: dose 10 mg/kg
# Plasmodium berghei [13] = assay: Antimalarial activity against Plasmodium berghei infected in mouse assessed as increase in mean survival days of host at 40 mg/kg, sc administered 72 hrs after infection relative to control; type: functional; details: route subcutaneous
# Plasmodium berghei [14] = assay: Antimalarial activity against Plasmodium berghei infected in mouse assessed as increase in mean survival days of host at 20 mg/kg, sc administered 72 hrs after infection relative to control; type: functional; details: route subcutaneous
# Plasmodium berghei [15] = assay: Antimalarial activity against Plasmodium berghei infected in mouse assessed as increase in mean survival days of host at 10 mg/kg, sc administered 72 hrs after infection relative to control; type: functional; details: route subcutaneous
# Plasmodium berghei [16] = assay: Antimalarial activity against Plasmodium berghei infected in mouse assessed as increase in mean survival days of host at 5 mg/kg, sc administered 72 hrs after infection relative to control; type: functional; details: route subcutaneous
# Plasmodium berghei [17] = assay: Antimalarial activity against Plasmodium berghei infected in mouse assessed as increase in mean survival days of host at 2.5 mg/kg, sc administered 72 hrs after infection relative to control; type: functional; details: route subcutaneous
# Plasmodium berghei [18] = assay: Antimalarial activity against Plasmodium berghei infected in mouse assessed as increase in mean survival days of host at 1.25 mg/kg, sc administered 72 hrs after infection relative to control; type: functional; details: route subcutaneous
# Plasmodium berghei [19] = assay: Antimalarial activity against Plasmodium berghei infected in mouse assessed as disease cure from parasite infection at 640 mg/kg, sc administered 72 hrs after infection; type: functional, organism-based; set-up: dose 640 mg/kg
# Plasmodium berghei [20] = assay: Antimalarial activity against Plasmodium berghei infected in mouse assessed as disease cure from parasite infection at 320 mg/kg, sc administered 72 hrs after infection; type: functional, organism-based; set-up: dose 320 mg/kg
# Plasmodium berghei [21] = assay: Antimalarial activity against Plasmodium berghei infected in mouse assessed as disease cure from parasite infection at 160 mg/kg, sc administered 72 hrs after infection; type: functional, organism-based; set-up: dose 160 mg/kg
# Plasmodium berghei [22] = assay: Antimalarial activity against Plasmodium berghei infected in mouse assessed as disease cure from parasite infection at 80 mg/kg, sc administered 72 hrs after infection; type: functional, organism-based; set-up: dose 80 mg/kg
# Plasmodium berghei [23] = assay: Antimalarial activity against Plasmodium berghei infected in mouse assessed as disease cure from parasite infection at 40 mg/kg, sc administered 72 hrs after infection; type: functional, organism-based; set-up: dose 40 mg/kg
# Plasmodium berghei [24] = assay: Antimalarial activity against Plasmodium berghei infected in mouse assessed as disease cure from parasite infection at 20 mg/kg, sc administered 72 hrs after infection; type: functional, organism-based; set-up: dose 20 mg/kg
# Plasmodium berghei [25] = assay: Antimalarial activity against Plasmodium berghei infected in mouse assessed as disease cure from parasite infection at 10 mg/kg, sc administered 72 hrs after infection; type: functional, organism-based; set-up: dose 10 mg/kg
# Plasmodium berghei [26] = assay: Antimalarial activity against trophozoite-induced Plasmodium berghei infected in mouse assessed as daily dose required to suppression of 90% parasite infection administered with diet for 6 days; type: functional
# Plasmodium berghei [27] = assay: Ratio of quinine hydrochloride SD90 to compound SD90 for trophozoite-induced Plasmodium berghei infected in mouse assessed as daily dose required to suppression of 90% parasite infection administered with diet for 6 days; type: functional
# Plasmodium gallinaceum [28] = assay: Antimalarial activity against trophozoite-induced Plasmodium gallinaceum infected in white leghorn chicken assessed as increase in mean survival days of host at 80 mg/kg, sc administered 72 hrs after infection relative to control; type: functional; details: route subcutaneous
# Plasmodium gallinaceum [29] = assay: Antimalarial activity against trophozoite-induced Plasmodium gallinaceum infected in white leghorn chicken assessed as increase in mean survival days of host at 40 mg/kg, sc administered 72 hrs after infection relative to control; type: functional; details: route subcutaneous
# Plasmodium gallinaceum [30] = assay: Antimalarial activity against trophozoite-induced Plasmodium gallinaceum infected in white leghorn chicken assessed as increase in mean survival days of host at 20 mg/kg, sc administered 72 hrs after infection relative to control; type: functional; details: route subcutaneous
# Plasmodium gallinaceum [31] = assay: Antimalarial activity against trophozoite-induced Plasmodium gallinaceum infected in white leghorn chicken assessed as increase in mean survival days of host at 10 mg/kg, sc administered 72 hrs after infection relative to control; type: functional; details: route subcutaneous
# Plasmodium gallinaceum [32] = assay: Antimalarial activity against trophozoite-induced Plasmodium gallinaceum infected in white leghorn chicken assessed as increase in mean survival days of host at 5 mg/kg, sc administered 72 hrs after infection relative to control; type: functional; details: route subcutaneous
# Plasmodium gallinaceum [33] = assay: Antimalarial activity against trophozoite-induced Plasmodium gallinaceum infected in white leghorn chicken assessed as increase in mean survival days of host at 2.5 mg/kg, sc administered 72 hrs after infection relative to control; type: functional; details: route subcutaneous
# Plasmodium gallinaceum [34] = assay: Antimalarial activity against trophozoite-induced Plasmodium gallinaceum infected in white leghorn chicken assessed as increase in mean survival days of host at 1.25 mg/kg, sc administered 72 hrs after infection relative to control; type: functional; details: route subcutaneous
# Plasmodium gallinaceum [35] = assay: Antimalarial activity against trophozoite-induced Plasmodium gallinaceum infected in white leghorn chicken assessed as increase in mean survival days of host at 0.63 mg/kg, sc administered 72 hrs after infection relative to control; type: functional; details: route subcutaneous
smiles,measurement,setting,value
Cc1ccc(Cl)cc1Sc1ccc2nc(N)nc(N)c2c1,Activity,Plasmodium gallinaceum [1],Active
same,Activity,Plasmodium gallinaceum [2],Active
same,Activity,Plasmodium gallinaceum [3],Active
same,MIC,Enterococcus faecalis,< 0.25 µg/mL
same,MIC,Staphylococcus aureus [4],< 0.25 µg/mL
same,MIC,Staphylococcus aureus [5],< 0.25 µg/mL
same,MIC,Pseudomonas aeruginosa,> 25 µg/mL
same,MIC,Escherichia coli,< 0.25 µg/mL
same,MIC,Shigella sonnei,1.5 µg/mL
same,Activity,Plasmodium gallinaceum [6],Active
same,Activity,Plasmodium gallinaceum [7],Active
same,Activity,Plasmodium gallinaceum [8],Active
same,Activity,Plasmodium gallinaceum [9],Active
same,Activity,Plasmodium gallinaceum [10],Active
same,MST,Plasmodium gallinaceum [11],7 days
same,Activity,Plasmodium gallinaceum [12],Active
same,MST,Plasmodium berghei [13],25.7 days
same,MST,Plasmodium berghei [14],17.8 days
same,MST,Plasmodium berghei [15],8.8 days
same,MST,Plasmodium berghei [16],9.5 days
same,MST,Plasmodium berghei [17],4.1 days
same,MST,Plasmodium berghei [18],2.7 days
same,Activity,Plasmodium berghei [19],Active
same,Activity,Plasmodium berghei [20],Active
same,Activity,Plasmodium berghei [21],Active
same,Activity,Plasmodium berghei [22],Active
same,Activity,Plasmodium berghei [23],Active
same,Activity,Plasmodium berghei [24],Active
same,Activity,Plasmodium berghei [25],Active
same,SD90,Plasmodium berghei [26],0.43 mg/kg/day
same,Ratio,Plasmodium berghei [27],170
same,MST,Plasmodium gallinaceum [28],18 days
same,MST,Plasmodium gallinaceum [29],7.8 days
same,MST,Plasmodium gallinaceum [30],7.4 days
same,MST,Plasmodium gallinaceum [31],5.8 days
same,MST,Plasmodium gallinaceum [32],3.6 days
same,MST,Plasmodium gallinaceum [33],1.4 days
same,MST,Plasmodium gallinaceum [34],0 days
same,MST,Plasmodium gallinaceum [35],0 days
